Data: patent publication US5652234A, “3-(7-oxo-1-aza-4-oxabicyclo[3.2.0]hept-3-yl)alanine derivative as antitumor agent” (Taiho Pharmaceutical Co., Limited, priority 1994, dated 1997)

Assays:
[1] = test system: L1210 cells; assay: cells; assay type: cell-based; conditions: Mus musculus, L1210, 72 h, read-out: Cytotoxicity TD50 L-1210
Experimental: Vitro L1210 Cell Cytoxocity Assay
In vitro :L1210 cell cytotoxicity assay was done by the method of microculture tetrazolium assay (Alley et al., Cancer Research, 48, 589-601 (1988).
L1210 cells were cultivated in RPMI 1640 medium supplemented with 10% fetal calf serum and […] of 2-mercaptoethanol at 37° C. in humidified 5% CO2 atmosphere no prepare a cell stock. Cells were counted using neubauer hemocytometer and seed in 96 well plates at 100 μl of 0.5×10^4 cells per ml. The test compounds were diluted and 100 μl of the solution was added in triplicate wells to give the final concentration of 10, 5, 1, 0.5, 0.1, 0.05 and 0.01 μg/ml. Control wells were identical except :hat the test compound was absent. These were cultured for three days. Results were assayed using the microculture tetrazolium assay briefly. 50 μl of MTT formazoan working solution (1:5 v/v in culture medium) was added to each well and cultures were incubated at 37° C. for 4 hrs. Culture plates were centrifuged at low speed for 5 minutes. All but 10-20 μl of culture medium supernatant was removed by slow aspiration and […] and read at OD540 on a multiscan spectrophotometer. Inhibition value of cell growth was calculated based on optical density using the following equation; [formula] TD50 values were calculated from linear depression ines of the log-logit plot.

[2] = test system: KB cells; assay: cells; assay type: cell-based; conditions: Homo sapiens, 72 h, read-out: Cytotoxicity TD50 KB
Experimental: In vitro KB cell cytoxocity assay was done by modification of the crystal violet assay (Grillis et al., Anal Biochem., 159, 109-113 (1986).
KB cells were cultivated in Eagles minimum essential medium supplemented with 10% calf serum and incubated at 37° C. in a humidified 5% CO2 atmosphere to prepare a cell stock. Cells were counted using a neubauer hemocytometer and seeded in 96 well plates at 100 μl of 3×10^4 cells/ml and cultured for one day. Test compounds were diluted and 100 .parallel.l of the solution was added in triplicate wells to give final concentration of 10, 5, 1, 0.5, 0.1, 0.05 and 0.01 μg/ml. Control wells were identical except that test compound was absent. These were cultured for three days. Then the cells were fixed with addition of 20 μl of 25% glutaraldehyde for 15 minutes, washed with water and dried. Then stained with 100 μl of 0.05% crystal violet for 15minutes, washed with water and dried. The wells are eluted with 100 μl of 0.05M NaH2 PO4 /ethanol (1:1 v/v) and read at OD540 on a multiscan spectrophotometer. Inhibition value of cell Growth was calculated based on optical density using the following equation; [formula] TD50 values were calculated from linear recression ines of the log-logit plot.

[3] = test system: Sarcoma 180; assay: In Vivo Antitumor Activity Against Sarcoma 180; set-up: species or system male ICR mice; conditions: s.c. - i.p., days 1, 5 and 9, tumor weight on day 12
Experimental: The compounds of general formula (I) were tested in vivo against Sarcoma 180 xenografted tumor to mice as illustrated herein after.
Sarcoma 180, 5×10^6 cells were inoculated by S.C. to male ICR mice (6 weeks old) on day 0. Drugs were administered on days 1,5 and 9. Mice were killed and tumor weight was measured on day 12 after transplantation. The percentage inhibition of tumor growth was calculated from the mean tumor weight of the treated group compared with that of the control group. Number of mice used in each group was between 6 to 10.

[4] = test system: β-lactamase; conditions: natural metabolites isolated from Streptomyces culture; cited from earlier work
[5] = isolation to be done in the dark at low temperatures; cited from earlier work

## O=C(N[C@@H](C[C@@H]1CN2C(=O)C[C@@H]2O1)C(=O)OC(c1ccccc1)c1ccccc1)OCc1ccccc1 (mixture of isomers) [10A, N-Benzyloxycarbonyl-3-[(3RS,5SR)-7-oxo-1-aza-4-oxabicyclo [3.2.0]hept-3-yl]-L-alanine diphenylmethyl ester]
[1]
  IC50: 10 µg/mL
[2]
  IC50: 3.17 µg/mL

## O=C(N[C@H](C[C@@H]1CN2C(=O)C[C@@H]2O1)C(=O)OC(c1ccccc1)c1ccccc1)OCc1ccccc1 (mixture of isomers) [10B, N-(benzyloxycarbonyl)-3-[(3RS,5SR)-7-oxo-1-aza-4-oxabicyclo[3.2.0]hept-3-yl]-D-alanine diphenylmethyl ester]
[1]
  IC50: 7.5 µg/mL
[2]
  IC50: 1.78 µg/mL

## N[C@@H](C[C@@H]1CN2C(=O)C[C@@H]2O1)C(=O)O (mixture of isomers) [compound 11, 3-[(3RS,5SR)-7-oxo-1-aza-4-oxabicyclo[3,2,0]hept-3-yl]-L-alanine]
[1]
  IC50: 0.1 µg/mL
[3]; 1.56 mg/kg/day
  % Inhibition in 12 days (tumor growth, tumor weight): 71.4%
[3]; 3.13 mg/kg/day
  % Inhibition in 12 days (tumor growth, tumor weight): 79.5%
[2]
  IC50: 0.023 µg/mL

## N[C@H](C[C@@H]1CN2C(=O)C[C@@H]2O1)C(=O)O (mixture of isomers) [compound 12, 3-[(3RS,5SR)-7-oxo-1-aza-4-oxabicyclo[3.2.0]hept-3-yl]-D-alanine]
[2]
  IC50: 0.098 µg/mL

## CC(C)C(N)C(=O)NC(C(=O)O)C(O)C1CN2C(=O)CC2O1 (centres unmarked) [G0069A]
[4]
  β-lactamase inhibitory properties: None of the above metabolites exhibited β-lactamase inhibitory properties
[5]
  chemical stability: chemicalyl unstable
